Laboratory results from patent US9096632B2, “Modulator of activity of adenylate cyclase” (Public University Corporation Yokohama City University, priority 2010, dated 2015).

Columns and labels:
[1] = biological target: T1, adenylyl cyclase activity in the striatum (type 5 adenylyl cyclase) (Mus musculus, UniProt P84309); experiment: Membrane adenylyl cyclase assay, WT striatal membrane, forskolin-stimulated; type: biochemical; settings: 100 μM compound; 50 μM forskolin; WT striatal membrane; read-out: forskolin-stimulated adenylyl cyclase activity (relative to activity without inhibitor = 100)
T1 construct: IC50 on adenylyl cyclase activity in the striatum; other: WT; estimated from 10, 50 and 100 μM; other: 100 μM compound
T1 sequence (P84309 whole entry): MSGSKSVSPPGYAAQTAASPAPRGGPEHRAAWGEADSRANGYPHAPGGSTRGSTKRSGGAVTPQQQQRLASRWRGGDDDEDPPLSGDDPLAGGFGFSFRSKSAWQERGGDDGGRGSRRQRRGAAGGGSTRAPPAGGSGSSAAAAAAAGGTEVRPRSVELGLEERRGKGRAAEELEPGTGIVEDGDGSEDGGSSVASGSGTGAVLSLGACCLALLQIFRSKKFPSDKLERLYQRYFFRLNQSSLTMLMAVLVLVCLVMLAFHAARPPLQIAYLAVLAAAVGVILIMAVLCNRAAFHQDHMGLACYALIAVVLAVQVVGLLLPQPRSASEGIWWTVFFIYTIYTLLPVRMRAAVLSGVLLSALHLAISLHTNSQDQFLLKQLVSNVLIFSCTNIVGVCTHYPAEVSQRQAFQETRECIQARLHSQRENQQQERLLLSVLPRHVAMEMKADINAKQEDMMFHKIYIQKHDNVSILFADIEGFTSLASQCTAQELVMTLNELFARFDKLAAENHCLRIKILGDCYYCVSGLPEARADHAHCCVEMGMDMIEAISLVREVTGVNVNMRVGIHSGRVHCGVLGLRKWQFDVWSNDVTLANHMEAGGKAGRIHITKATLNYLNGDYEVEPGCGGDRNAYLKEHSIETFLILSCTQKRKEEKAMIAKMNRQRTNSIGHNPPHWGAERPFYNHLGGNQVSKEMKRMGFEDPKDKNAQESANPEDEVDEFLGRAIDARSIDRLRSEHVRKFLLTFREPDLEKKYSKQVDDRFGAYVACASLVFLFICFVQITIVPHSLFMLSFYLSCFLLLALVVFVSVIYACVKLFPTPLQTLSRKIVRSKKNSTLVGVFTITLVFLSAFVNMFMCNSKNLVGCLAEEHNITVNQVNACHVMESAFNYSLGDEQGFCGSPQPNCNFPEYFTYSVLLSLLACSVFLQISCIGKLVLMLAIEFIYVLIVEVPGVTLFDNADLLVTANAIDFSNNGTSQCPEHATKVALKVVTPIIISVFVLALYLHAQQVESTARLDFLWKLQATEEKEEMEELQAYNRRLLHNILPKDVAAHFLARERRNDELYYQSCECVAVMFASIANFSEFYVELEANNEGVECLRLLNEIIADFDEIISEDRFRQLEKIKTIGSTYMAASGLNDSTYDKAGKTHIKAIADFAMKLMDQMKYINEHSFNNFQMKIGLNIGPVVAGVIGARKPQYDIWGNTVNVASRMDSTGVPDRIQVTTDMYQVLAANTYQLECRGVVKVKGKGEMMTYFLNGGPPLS
Experimental: (§1) FIG. 2 Inhibitory effects of various compounds on adenylyl cyclase activity in mouse striatum. The striatum is part of the brain. Here, it is known that type 5 adenylyl cyclase occupies almost all of the enzyme activity. […] Relative values are shown with adenylyl cyclase activity in the presence of 50 μM forskolin but in the absence of inhibitors being taken as 100 (n=4, means±S.E.).
(§2) <Membrane Adenylyl Cyclase Assay>
(§3) Striatal, cardiac and pulmonary tissues were removed from WT (C57BL) (Charles River Laboratories Japan, Inc.) and AC5KO (Circ. Res. 93: 364-371, 2003), both of which were 12-15 weeks of age after birth, and individual membrane protein fractions were prepared therefrom. The resultant membrane preparations were incubated with a reaction mixture (20 mM HEPES, pH 8, 5 mM MgCl2, 0.5 mM EDTA, pH 8, 0.1 mM ATP, 1 mM phospho creatine, 8 U/mL creatine phosphor kinase, 200 μM IBMX) at 30° C. in the presence of forskolin (an activator of adenylyl cyclase) (50 μM, Sigma Cat. No. F6886) and various compounds, to thereby allow production of cAMP. In this assay, striatum- or lung-derived membrane preparations were used in an amount of 1 μg, and heart-derived membrane preparation was used in an amount of 2 μg. 15 minutes (striatum and lung) or 30 minutes (heart) after its start, the reaction was terminated by adding trichloroacetate (TCA) solution to give a final concentration of 5%. Then, the protein was precipitated by centrifugation (13,500×g, 10 min).
(§4) In both membrane adenylyl cyclase assay and cAMP accumulation assay, the amount of cAMP contained in TCA solution was determined by radioimmunoassay using […].

[2] = tested on: adenylyl cyclase activity in the striatum (type 5 adenylyl cyclase); experiment: as above; type: biochemical, mouse; settings: 10 μM; WT; striatum vs lung
Experimental: as §1, §2, §3, §4

[3] = tested on: adenylyl cyclase activity in the heart; experiment: Membrane adenylyl cyclase assay, WT heart membrane, forskolin-stimulated; type: biochemical, mouse; settings: 10 μM; wild-type mouse; heart vs lung
Excerpt: FIG. 3 Inhibitory effects of individual vidarabine derivatives on adenylyl cyclase activity in the striatum, heart and lung. With adenylyl cyclase activity in the presence of […] but in the absence of inhibitors being taken as 100, the reductions in adenylyl cyclase activity upon treatment with various inhibitors at the concentrations indicated on the horizontal axis are shown (n=4, means±S.E.).
as §2, §3, §4

[4] = tested on: cardiac myocytes in myocardial tissues; experiment: TUNEL staining of myocardial tissues of chronic catecholamine-loaded mice; type: in vivo, mouse; settings: mice of the chronic isoproterenol loading experiment
Experimental: FIG. 12 TUNEL stain of myocardial tissues. Apoptosis positive cardiac myocytes in the hearts of mice used in chronic catecholamine loading experiment (FIG. 9) were evaluated by TUNEL staining (n=4-6, means±SE).
<TUNEL Staining of Myocardial Tissues>
Apoptosis positive cells of the mice used in the chronic catecholamine loading experiment were evaluated by TUNEL staining.

[5] = tested on: strychnine-induced tonic extensive convulsion and death; settings: for time to death induced by strychnine convulsion: 150 mg/kg (0.525 mmol/kg) and 300 mg/kg (1.05 mmol/kg) i.p. 15 min before strychnine 1.5 mg/kg; for migration to the central nervous system: evaluated indirectly from strychnine antagonism
Experimental: FIG. 13 Effects on the central nervous system. […] Strychnine nitrate dissolved in physiological saline was administered in the cervicodorsal hypoderm of mice (C57BL/6N; Nippon SLC; male; 10-12 week old) at a dose of 1.5 mg/kg. Subsequently, the time to death through tonic extensive convulsion was measured so that the effect on migration to the central nervous system was evaluated indirectly. Vidarabine, V2E, V3E and V5E were dissolved or suspended in physiological saline and administered intraperitoneally 15 minutes before strychnine administration (n=4-10, means±SE) (FIG. 13). Death was judged to have occurred when the thoracic respiratory movement ceased.
The migration of vidarabine, V2E, V3E and V5E to the central nervous system was evaluated by antagonism against the tonic extensive convulsion and death initiated in mice by strychnine administration. Strychnine nitrate dissolved in physiological saline was administered in the cervicodorsal hypoderm of mice (C57BL/6N; Nippon SLC; male; 10-12 week old) at a dose of 1.5 mg/kg. Subsequently, the time to death through tonic extensive convulsion was measured. Vidarabine, V2E, V3E and V5E were dissolved or suspended in physiological saline and administered intraperitoneally 15 minutes before strychnine administration.

[6] = tested on: pacing-induced atrial fibrillation; experiment: Antiarrhythmic action: pacing-induced transient atrial fibrillation; type: in vivo, mouse; settings: vidarabine 15 mg/kg/day, V2E, V3E, V5E 19.8 mg/kg/day, osmotic mini-pump; vs DMSO alone
Experimental: FIG. 14 Antiarrhythmic (atrial fibrillation inhibition) action. To healthy wild type mice (C57BL/6N), vidarabine (15 mg/kg/day), V2E, V3E or V5E (19.8 mg/kg/day) (all of which are dissolved in DMSO) or DMSO alone was administered with an osmotic mini-pump (Alzet 2001). Subsequently, voltage stimuli of 2.5 mA were applied to the mice for 60 seconds at intervals of 30 milliseconds with a transesophageal catheter (atrial tachypacing; Circ Res 97, 62-69, 2005) to induce transient atrial fibrillation. The duration of atrial fibration until the induced transient atrial fibrillation converted to a normal sinus rhythm was measured (n=4-8, means±SE).
After mice were inhalationally anesthetized with isoflurane, an electrode catheter (Millar: Model EPR800; size 1.1 F; length 4.5 cm) connected to an electrocardiogram amp for the purpose of recording intracardiac electrocardiogram was slowly inserted through the oral cavity into the esophagus, and fixed at a site where maximum P wave was recorded. The thus fixed electrode catheter was connected to an electrostimulator carefully enough to avoid any movement of its position. Thereafter, body surface electrogram was recorded by II lead. Subsequently, voltage stimuli of 2.5 mA were applied to mice for 60 seconds at intervals of 30 milliseconds to thereby induce transient atrial fibrillation. The time period during which the following phenomena can be confirmed from body surface electrogram was regarded as the duration of atrial P wave disappears from the baseline and the R-R intervals are not regular but produce arrhythmic pulse.
To healthy WT (C57BL/6N), each of vidarabine (15 mg/kg/day), V2E, V3E and V5E (19.8 mg/kg/day) (all of which were dissolved in DMSO) or DMSO alone was administered with an osmotic mini-pump (Alzet 2001). Subsequently, atrial fibrillation was induced under the above-described conditions, and the duration of atrial fibrillation until the induced atrial fibrillation converted to a normal sinus rhythm was measured (FIG. 14). This experiment was completed after confirming that the normal sinus rhythm was lasting for at least 5 minutes and that there was no recurrence of atrial fibrillation. For information, the maximum dose of vidarabine approved for use in the treatment of herpes in humans is 15 mg/kg/day for 10 days.

[7] = vidarabine, background statement; cited from earlier work

Row | Structure (SMILES) | activity at 100 µM [1] [%] | inhibition of adenylyl cyclase activity in striatum relative to lung (tissue specificity) [2] | inhibition of adenylyl cyclase activity in heart relative to lung (tissue specificity) [3] | apoptosis of cardiac myocytes induced by chronic catecholamine stimulation (TUNEL, myocardial tissue) [4] | time to death induced by strychnine convulsion [5] | migration to the central nervous system [5] | time for pacing-induced atrial fibrillation to convert to a normal sinus rhythm [6] | water solubility [7]
1 | CN(C)CC(=O)OC1C(O)C(CO)OC1n1cnc2c(N)ncnc21 (stereo not shown) [V2E, 2-O—(N,N-Dimethylglycyl)Vidarabine] | ~24.5 | about 3.0 fold | about 2.6 fold | equally inhibited | did not prolong | extremely low | significantly shortened | –
2 | CN(C)CC(=O)OC1C(CO)OC(n2cnc3c(N)ncnc32)C1O (stereo not shown) [V3E, 3-O—(N,N-Dimethylglycyl)Vidarabine] | ~25.1 | – | – | – | did not prolong | extremely low | significantly shortened | –
3 | CN(C)CC(=O)OCC1OC(n2cnc3c(N)ncnc32)C(O)C1O (stereo not shown) [V5E, 5-O—(N,N-Dimethylglycyl)Vidarabine] | ~24.9 | – | – | – | did not prolong | extremely low | significantly shortened | –
4 | Nc1ncnc2c1ncn2[C@@H]1O[C@H](CO)[C@@H](O)[C@@H]1O [vidarabine, reference compound] | ~17.3 | about 2.8 fold | about 2.4 fold | equally inhibited | significantly prolonged | – | significantly shortened | poor
